Test results as given in patent US20210047291A1, “PESTICIDALLY ACTIVE HETEROCYCLIC DERIVATIVES WITH SULFUR CONTAINING SUBSTITUENTS” (SYNGENTA PARTICIPATIONS AG, priority 2018, published 2021).

What was measured:
Assay type in all cases: in vivo
[1] = test system: Euschistus heros (Neotropical Brown Stink Bug); test: Example B3: Euschistus heros, soybean leaves, N2 nymphs; details: for percent effect (mortality or growth inhibition) at 200 ppm: Euschistus heros, 120 h, application rate of 200 ppm, N2 nymphs, 5 days after infestation, read-out: effect in at least one of the two categories (mortality or growth inhibition); for mortality at 50 ppm: Concentration 50 ppm, Euschistus heros (Example B3), read-out: Mortality (%)
Description: Soybean leaves on agar in 24-well microtiter plates were sprayed with aqueous test solutions prepared from 10,000 ppm DMSO stock solutions. After drying the leaves were infested with N2 nymphs. The samples were assessed for mortality and growth inhibition in comparison to untreated samples 5 days after infestation.

[2] = test system: Myzus persicae (Green peach aphid); test: Example B5: Myzus persicae feeding/contact activity, sunflower leaf discs; details: foliar; for mortality at 200 ppm: Myzus persicae, 144 h, application rate of 200 ppm, mixed ages, 6 days after infestation, read-out: mortality; for mortality at 12.5 ppm: Concentration 12.5 ppm, Myzus persicae (feeding/contact, Example B5), read-out: Mortality (%)
Description: Sunflower leaf discs were placed onto agar in a 24-well microtiter plate and sprayed with aqueous test solutions prepared from 10,000 ppm DMSO stock solutions. After drying, the leaf discs were infested with an aphid population of mixed ages. The samples were assessed for mortality 6 days after infestation.

[3] = test system: Myzus persicae (Green peach aphid); test: Example B6: Myzus persicae systemic activity, pea seedlings; details: for mortality at 24 ppm: Myzus persicae, 144 h, test rate of 24 ppm, mixed ages, 6 days after placing seedlings into test solutions, read-out: mortality; for mortality at 1.5 ppm: Concentration 1.5 ppm, Myzus persicae (systemic, Example B6), read-out: Mortality (%)
Description: Roots of pea seedlings infested with an aphid population of mixed ages were placed directly into aqueous test solutions prepared from 10,000 DMSO stock solutions. The samples were assessed for mortality 6 days after placing seedlings into test solutions.

Melodoigyne incognita = test: Example B14: Melodoigyne incognita juvenile mobility, in vitro profiling in 96 well plate; details: 200 ppm; after 24 h; second stage juveniles; read-out: control (juvenile mobility)
Description: Test solutions are prepared from 10,000 ppm DMSO stock solutions with a TECAN robot to achieve 20 μL of 1000, 200, 100, 50, 25 and 12.5 ppm. For each concentration three replicates are produced. Per well, 80 μL nematode solution is added containing 100 to 150 freshly harvested second stage juveniles of Melodoigyne incognita. The plates are covered and stored at room temperature in the dark and incubated for 24 h. Mobility of the exposed juveniles in a treated well is measured using an imaging tool and compared to an average of 12 untreated replicates.

Compound	percent effect (mortality or growth inhibition) at 200 ppm [1] [%]	mortality at 200 ppm [2] [%]	mortality at 24 ppm [3] [%]	pest or weed control at 200 ppm (Melodoigyne incognita) [%]	mortality at 50 ppm [1] [%]	mortality at 12.5 ppm [2] [%]	mortality at 1.5 ppm [3] [%]
CCS(=O)(=O)c1cc(NC(=O)C(C)(C)C)cnc1-c1nc2cc(C(F)(F)F)ncc2n1C [P39, N-[5-ethylsulfonyl-6-[3-methyl-6-(trifluoromethyl)imidazo[4,5-c]pyridin-2-yl]-3-pyridyl]-2,2-dimethyl-propanamide]	≥ 80	≥ 80	≥ 80	≥ 80			
CCS(=O)(=O)c1cc(N2CCOCC2=O)cnc1-c1nc2cc(C(F)(F)F)ncc2n1C [P15, 4-[5-ethylsulfonyl-6-[3-methyl-6-(trifluoromethyl)imidazo[4,5-c]pyridin-2-yl]-3-pyridyl]morpholin-3-one]	≥ 80	≥ 80	≥ 80	≥ 80			
CCS(=O)(=O)c1cc(-n2ccccc2=O)cnc1-c1nc2cc(C(F)(F)F)ncc2n1C [reference compound]					50	0	0
CCS(=O)(=O)c1ccc(N2CCN(C)C2=O)nc1-c1nc2cc(C(F)(F)F)ncc2n1C [reference compound]					50	80	0
CCSc1cc(N(C(C)=O)C(C)C)cnc1-c1nc2cc(C(F)(F)F)ncc2n1C [P47, N-[5-ethylsulfanyl-6-[3-methyl-6-(trifluoromethyl)imidazo[4,5-c]pyridin-2-yl]-3-pyridyl]-N-isopropyl-acetamide]	≥ 80						
CCS(=O)(=O)c1cc(N2CCS(=O)(=O)CC2=O)cnc1-c1nc2cc(C(F)(F)F)ncc2n1C [P18, 4-[5-ethylsulfonyl-6-[3-methyl-6-(trifluoromethyl)imidazo[4,5-c]pyridin-2-yl]-3-pyridyl]-1,1-dioxo-1,4-thiazinan-3-one]	≥ 80						
CCS(=O)(=O)c1cc(NC(=O)C(C)(C)O)cnc1-c1nc2cc(C(F)(F)F)ncc2n1C [P8, N-[5-ethylsulfonyl-6-[3-methyl-6-(trifluoromethyl)imidazo[4,5-c]pyridin-2-yl]-3-pyridyl]-2-hydroxy-2-methyl-propanamide]	≥ 80	≥ 80	≥ 80				
CCS(=O)(=O)c1cc(NC(=O)C2CC2)cnc1-c1nc2cc(C(F)(F)F)cnc2n1C [reference compound]							0
CCS(=O)(=O)c1cc(N(C)C(C)=O)ccc1-c1nc2cc(C(F)(F)F)ncc2n1C [P16, N-[3-ethylsulfonyl-4-[3-methyl-6-(trifluoromethyl)imidazo[4,5-c]pyridin-2-yl]phenyl]-N-methyl-acetamide]	≥ 80	≥ 80	≥ 80				
CCSc1cc(N(C)C(C)=O)cnc1-c1nc2cc(C(F)(F)F)ncc2n1C [P33, N-[5-ethylsulfanyl-6-[3-methyl-6-(trifluoromethyl)imidazo[4,5-c]pyridin-2-yl]-3-pyridyl]-N-methyl-acetamide]	≥ 80	≥ 80					
CCS(=O)(=O)c1cc(N(C)C(=O)CCS(C)(=O)=O)cnc1-c1nc2cc(C(F)(F)F)ncc2n1C [P31, N-[5-ethylsulfonyl-6-[3-methyl-6-(trifluoromethyl)imidazo[4,5-c]pyridin-2-yl]-3-pyridyl]-N-methyl-3-methylsulfonyl-propanamide]	≥ 80	≥ 80					
CCS(=O)(=O)c1cc(N(C)C(=O)CCSC)cnc1-c1nc2cc(C(F)(F)F)ncc2n1C [P41, N-[5-ethylsulfonyl-6-[3-methyl-6-(trifluoromethyl)imidazo[4,5-c]pyridin-2-yl]-3-pyridyl]-N-methyl-3-methylsulfanyl-propanamide]	≥ 80	≥ 80		≥ 80			
